Experiment [1] concerns the target human dopamine D2 receptor (Homo sapiens, UniProt P14416). The experiment is described as follows: PDSP radioligand binding assay at dopamine D2 receptor. As to conditions: primary assay at 10 μM; not progressed to secondary assay.
Experiment [2] deals with T1, dopamine D3 receptor (Homo sapiens, UniProt P35462). Description: PDSP radioligand binding assay at dopamine D3 receptor. Particulars: versus 22c.
The target of experiment [3] is dopamine D1 receptor (Macaca mulatta, UniProt O77680). The experiment is described as follows: [35S]GTPγS binding stimulation in HEK293-rh D1 cells. The class given is cell-based, rhesus macaque. As to conditions: compared with dopamine as full agonist. (In general: Binding of GTPγS marks nucleotide exchange on a G protein.)
Sequence of dopamine D1 receptor (O77680 whole entry): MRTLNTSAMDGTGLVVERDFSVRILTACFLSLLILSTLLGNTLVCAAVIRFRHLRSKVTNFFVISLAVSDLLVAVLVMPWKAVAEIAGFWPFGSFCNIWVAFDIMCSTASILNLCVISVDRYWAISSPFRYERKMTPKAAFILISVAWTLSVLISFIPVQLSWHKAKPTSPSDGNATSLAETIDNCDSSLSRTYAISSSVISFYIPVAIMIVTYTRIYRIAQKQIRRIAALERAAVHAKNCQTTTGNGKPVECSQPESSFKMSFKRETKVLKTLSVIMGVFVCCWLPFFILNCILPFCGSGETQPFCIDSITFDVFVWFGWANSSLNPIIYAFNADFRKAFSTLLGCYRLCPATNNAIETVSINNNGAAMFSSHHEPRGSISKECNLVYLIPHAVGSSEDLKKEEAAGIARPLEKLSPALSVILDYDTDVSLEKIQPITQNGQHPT
Experiment [4] concerns the target T1, dopamine D3 receptor. The experiment is described as follows: [35S]GTPγS binding in CHO-hD3 cells. As to conditions: compared with dopamine as full agonist. Format: cell-based.

Entries after “also recorded” stand apart in the source; their conditions may differ.

Sequence of human dopamine D2 receptor (P14416 whole entry): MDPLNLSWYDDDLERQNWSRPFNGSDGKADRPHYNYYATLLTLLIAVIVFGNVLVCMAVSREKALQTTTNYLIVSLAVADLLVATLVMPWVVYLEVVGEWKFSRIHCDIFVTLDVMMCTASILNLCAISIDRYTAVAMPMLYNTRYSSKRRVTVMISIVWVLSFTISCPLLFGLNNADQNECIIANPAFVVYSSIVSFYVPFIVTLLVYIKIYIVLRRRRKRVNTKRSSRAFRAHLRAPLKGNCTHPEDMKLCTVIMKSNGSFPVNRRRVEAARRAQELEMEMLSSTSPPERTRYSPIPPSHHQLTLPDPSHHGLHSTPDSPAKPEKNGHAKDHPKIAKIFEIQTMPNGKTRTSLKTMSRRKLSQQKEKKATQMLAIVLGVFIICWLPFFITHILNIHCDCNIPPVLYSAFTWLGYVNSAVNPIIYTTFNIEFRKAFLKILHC
T1 sequence (P35462 whole entry): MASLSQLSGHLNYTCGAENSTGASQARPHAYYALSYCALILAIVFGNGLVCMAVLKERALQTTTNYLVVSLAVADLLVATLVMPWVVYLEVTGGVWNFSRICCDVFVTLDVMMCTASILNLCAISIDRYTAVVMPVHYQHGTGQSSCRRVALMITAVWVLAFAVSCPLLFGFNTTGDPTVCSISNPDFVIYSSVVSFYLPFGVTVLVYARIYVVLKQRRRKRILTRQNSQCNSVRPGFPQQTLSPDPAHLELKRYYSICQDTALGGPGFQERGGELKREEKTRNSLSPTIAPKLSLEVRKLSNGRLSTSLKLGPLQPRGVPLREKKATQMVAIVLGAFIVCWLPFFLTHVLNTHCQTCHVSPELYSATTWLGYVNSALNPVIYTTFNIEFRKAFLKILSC

For the compound `CCCCCCOc1c(O)ccc2c1CN1CCc3cc(OC)c(O)cc3[C@@H]1C2` [Compound 22e, (S)-9-(hexyloxy)-3-methoxy-5,8,13,13a-tetrahydro-6H-isoquinolino[3,2-a]isoquinoline-2,10-diol], in experiment [1], the “D2 receptor affinity in the primary assay” value (“D2 receptor affinity” below) is recorded as “lacked any appreciable affinity”. Same read-out and setting: the same measure for `CCCCOc1c(O)ccc2c1CN1CCc3cc(OC)c(O)cc3[C@@H]1C2` [Compound 22c, (S)-9-butoxy-3-methoxy-5,8,13,13a-tetrahydro-6H-isoquinolino[3,2-a]isoquinoline-2,10-diol]: “lacked any appreciable affinity”. As for `COCCOc1c(O)ccc2c1CN1CCc3cc(OC)c(O)cc3[C@@H]1C2` [Compound 22g, (S)-3-methoxy-9-(2-methoxyethoxy)-5,8,13,13a-tetrahydro-6H-isoquinolino[3,2-a]isoquinoline-2,10-diol], in experiment [2], the “fold higher D3 affinity than n-butyloxy analogue 22c” value is reported as 4 fold. With `COCCOc1c(O)cc(Br)c2c1CN1CCc3cc(OC)c(O)cc3[C@@H]1C2` [Compound 20g, (S)-12-bromo-3-methoxy-9-(2-methoxyethoxy)-5,8,13,13a-tetrahydro-6H-isoquinolino[3,2-a]isoquinoline-2,10-diol], the “D2 receptor affinity” value in experiment [1] is reported as “did not show any appreciable D2 receptor affinity; also recorded: no activity”. In the case of `CCOc1c(O)ccc2c1CN1CCc3cc(OC)c(O)cc3[C@@H]1C2` [Compound 22a, (S)-9-ethoxy-3-methoxy-5,8,13,13a-tetrahydro-6H-isoquinolino[3,2-a]isoquinoline-2,10-diol], in experiment [3], the “intrinsic activity at D1 receptor (stimulation of GTPγ-S binding)” value is reported as “lacked intrinsic activity”. In experiment [4], the “intrinsic activity at D3 receptor (stimulation of GTPγ-S binding)” value is “lacked intrinsic activity”. Also, the “D2 receptor affinity” value in experiment [1] is “lacked any appreciable affinity”. For `CCOc1c(O)cc(Br)c2c1CN1CCc3cc(OC)c(O)cc3[C@@H]1C2` [Compound 20a, (S)-12-bromo-9-ethoxy-3-methoxy-5,8,13,13a-tetrahydro-6H-isoquinolino[3,2-a]isoquinoline-2,10-diol], in experiment [1], the “D2 receptor affinity” value is reported as “did not show any appreciable D2 receptor affinity”.

(Values after article PMC5148686 (European journal of medicinal chemistry, 2016).)
